Our source for the IC50 and inhibition values is patent US8853203B2, “Diazepinone derivatives” (Novartis AG, priority 2012, dated 2014).

By pIC50 is commonly meant the IC50 on a negative log10 scale, so that one unit is a factor of ten. As usually defined, the inhibition is the share of the control response that was lost under treatment.

One experiment deals with human mGluR1 (Homo sapiens (Human), UniProt Q13255). As to the kind of experiment: mGluR1 antagonism, L-glutamate induced intracellular calcium increase (FLIPR) in CHO cells stably expressing human mGluR1. It is filed as cell-based. The following applies: for pIC50: L-glutamate induced intracellular calcium, CHO cells expressing human mGluR1, FLIPR; for inhibition at 10 µM: CHO. Background: Calcium flux is commonly read through the fluorescence of an indicator in the cells.
Chain of human mGluR1 (Q13255 19-1194): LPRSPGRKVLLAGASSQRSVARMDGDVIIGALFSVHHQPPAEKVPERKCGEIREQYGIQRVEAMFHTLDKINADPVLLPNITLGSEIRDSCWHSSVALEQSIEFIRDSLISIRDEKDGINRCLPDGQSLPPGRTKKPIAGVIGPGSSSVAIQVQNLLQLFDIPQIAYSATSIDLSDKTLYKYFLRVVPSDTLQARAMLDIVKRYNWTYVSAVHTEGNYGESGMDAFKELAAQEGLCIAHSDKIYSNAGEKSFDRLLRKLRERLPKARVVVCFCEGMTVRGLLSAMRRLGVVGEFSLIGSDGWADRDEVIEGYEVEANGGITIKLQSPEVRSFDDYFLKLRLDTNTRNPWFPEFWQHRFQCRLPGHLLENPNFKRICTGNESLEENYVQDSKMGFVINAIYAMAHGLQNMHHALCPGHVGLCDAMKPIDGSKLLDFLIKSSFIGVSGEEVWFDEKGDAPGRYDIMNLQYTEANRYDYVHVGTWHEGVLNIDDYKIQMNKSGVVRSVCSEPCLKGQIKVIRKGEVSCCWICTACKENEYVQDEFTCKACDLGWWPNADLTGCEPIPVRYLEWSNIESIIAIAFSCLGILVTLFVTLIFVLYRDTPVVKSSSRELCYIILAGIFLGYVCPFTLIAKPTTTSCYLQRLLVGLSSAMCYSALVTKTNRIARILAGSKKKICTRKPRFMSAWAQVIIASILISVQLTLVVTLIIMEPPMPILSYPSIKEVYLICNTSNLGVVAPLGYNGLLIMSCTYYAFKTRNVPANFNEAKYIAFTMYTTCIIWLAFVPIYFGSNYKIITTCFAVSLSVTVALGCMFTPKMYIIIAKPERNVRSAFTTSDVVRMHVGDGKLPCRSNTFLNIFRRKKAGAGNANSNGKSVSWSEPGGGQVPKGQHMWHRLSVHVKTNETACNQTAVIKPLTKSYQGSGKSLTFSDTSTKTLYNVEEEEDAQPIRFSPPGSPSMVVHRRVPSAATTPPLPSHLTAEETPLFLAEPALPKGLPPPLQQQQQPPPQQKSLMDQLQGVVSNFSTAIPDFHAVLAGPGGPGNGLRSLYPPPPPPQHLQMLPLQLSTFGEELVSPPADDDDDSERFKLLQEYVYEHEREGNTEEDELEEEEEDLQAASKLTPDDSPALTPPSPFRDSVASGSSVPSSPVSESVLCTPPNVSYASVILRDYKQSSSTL

For a further experiment, the target named is human mGluR5a receptors (Homo sapiens (Human), UniProt P41594). As to the kind of experiment: inhibition of glutamate-induced elevation of intracellular calcium in L(tk-) cells expressing human mGluR5a. It is filed as cell-based. The following applies: glutamate-induced intracellular calcium elevation, L(tk-) cells expressing human mGluR5a; read-out: mGluR5 IC50. Summed up: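 Compounds tested for inhibition of the glutamate-induced rise in intracellular calcium concentration in L(tk-) cells stably expressing human mGluR5a.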
Chain of human mGluR5a receptors (P41594 other isoform, or with tags, fused parts or gaps): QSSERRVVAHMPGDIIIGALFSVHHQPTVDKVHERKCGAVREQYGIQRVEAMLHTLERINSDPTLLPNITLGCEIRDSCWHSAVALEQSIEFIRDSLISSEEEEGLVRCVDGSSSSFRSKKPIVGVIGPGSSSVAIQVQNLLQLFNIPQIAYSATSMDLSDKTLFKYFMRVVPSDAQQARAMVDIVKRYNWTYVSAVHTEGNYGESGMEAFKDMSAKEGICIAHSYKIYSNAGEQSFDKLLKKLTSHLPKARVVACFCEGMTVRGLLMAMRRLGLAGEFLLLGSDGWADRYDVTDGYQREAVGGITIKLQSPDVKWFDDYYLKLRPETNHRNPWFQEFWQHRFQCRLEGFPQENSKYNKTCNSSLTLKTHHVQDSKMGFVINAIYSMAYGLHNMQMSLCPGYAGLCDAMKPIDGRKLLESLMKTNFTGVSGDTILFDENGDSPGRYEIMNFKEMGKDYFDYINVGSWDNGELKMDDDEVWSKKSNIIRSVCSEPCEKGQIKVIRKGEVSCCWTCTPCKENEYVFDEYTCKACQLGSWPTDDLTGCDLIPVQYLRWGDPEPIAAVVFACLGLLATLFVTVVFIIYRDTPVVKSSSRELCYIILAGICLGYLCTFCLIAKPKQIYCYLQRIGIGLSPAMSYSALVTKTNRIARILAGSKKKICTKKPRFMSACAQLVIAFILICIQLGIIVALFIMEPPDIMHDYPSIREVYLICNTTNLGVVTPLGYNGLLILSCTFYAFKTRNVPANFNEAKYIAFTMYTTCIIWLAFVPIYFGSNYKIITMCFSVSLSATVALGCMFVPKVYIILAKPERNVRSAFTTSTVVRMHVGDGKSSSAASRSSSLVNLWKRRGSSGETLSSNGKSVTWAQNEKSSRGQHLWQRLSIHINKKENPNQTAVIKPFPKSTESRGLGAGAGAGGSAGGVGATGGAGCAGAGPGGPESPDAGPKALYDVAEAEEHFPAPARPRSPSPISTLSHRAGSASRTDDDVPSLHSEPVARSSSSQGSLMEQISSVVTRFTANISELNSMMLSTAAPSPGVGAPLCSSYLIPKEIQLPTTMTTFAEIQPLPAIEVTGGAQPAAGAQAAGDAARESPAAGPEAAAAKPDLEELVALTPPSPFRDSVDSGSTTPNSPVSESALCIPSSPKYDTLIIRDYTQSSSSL

SMILES strings stand for the structures. pIC50: −log10 of the molar value.

In the case of `CC(C)c1cn(C2=NCC(=O)N3CCc4c(cccc4-c4nccn4C)C3=C2)cn1` [Example 73, 2-(4-isopropyl-1H-imidazol-1-yl)-9-(1-methyl-1H-imidazol-2-yl)-7,8-dihydro-[1,4]diazepino[7,1-a]isoquinolin-5(4H)-one], the negative logarithm of the IC50 (pIC50) on human mGluR1 was under 5.00; at human mGluR5a receptors, 5.46.
In the case of `CCc1cn(C2=NCC(=O)N3CCc4c(cccc4-c4ncco4)C3=C2)cn1` [Example 74, 2-(4-ethyl-1H-imidazol-1-yl)-9-(oxazol-2-yl)-7,8-dihydro-[1,4]diazepino[7,1-a]isoquinolin-5(4H)-one], the negative logarithm of the IC50 (pIC50) on human mGluR1 was 5.92; on human mGluR5a receptors, 7.66.
Turning to `CCc1cn(C2=NCC(=O)N3CCc4c(cccc4-c4ccco4)C3=C2)cn1` [Example 75, 2-(4-ethyl-1H-imidazol-1-yl)-9-(furan-2-yl)-7,8-dihydro-[1,4]diazepino[7,1-a]isoquinolin-5(4H)-one], the pIC50 was 6.77 at human mGluR1 and 8.05 on human mGluR5a receptors.
In the case of `COCCc1cn(C2=NCC(=O)N3CCc4c(cccc4-c4cscn4)C3=C2)cn1` [Example 76, 2-(4-(2-methoxyethyl)-1H-imidazol-1-yl)-9-(thiazol-4-yl)-7,8-dihydro-[1,4]diazepino[7,1-a]isoquinolin-5(4H)-one], the pIC50 at human mGluR1 is 5.38; on human mGluR5a receptors it was 7.47.
Turning to `COCc1cn(C2=NCC(=O)N3CCc4c(cccc4-c4ncc(C)s4)C3=C2)cn1` [Example 77], at human mGluR1, the inhibition at 10 µM worked out at 73%. Moreover, at human mGluR5a receptors, the pIC50 was 7.49.
`Cc1cn(C2=NCC(=O)N3CCc4c(cccc4-c4cncnc4)C3=C2)cn1` [Example 78, 2-(4-methyl-1H-imidazol-1-yl)-9-(pyrimidin-5-yl)-7,8-dihydro-[1,4]diazepino[7,1-a]isoquinolin-5(4H)-one]: the figures for the pIC50 on human mGluR1 and at human mGluR5a receptors were under 5.00 and 6.27, respectively.
For `Cc1cn(C2=NCC(=O)N3CCc4c(cccc4-c4cccnc4)C3=C2)cn1` [Example 79, 2-(4-methyl-1H-imidazol-1-yl)-9-(pyridin-3-yl)-7,8-dihydro-[1,4]diazepino[7,1-a]isoquinolin-5(4H)-one], the pIC50 at human mGluR1 is under 5.00; at human mGluR5a receptors it was 6.89.
Turning to `Cc1cn(C2=NCC(=O)N3CCc4c(cccc4-c4ccncc4)C3=C2)cn1` [Example 80, 2-(4-methyl-1H-imidazol-1-yl)-9-(pyridin-4-yl)-7,8-dihydro-[1,4]diazepino[7,1-a]isoquinolin-5(4H)-one], the negative-log IC50 (pIC50) is under 5.00 at human mGluR1 and 6.84 on human mGluR5a receptors.
For the compound `Cc1cn(C2=NCC(=O)N3CCc4c(cccc4-c4ccc(F)nc4)C3=C2)cn1` [Example 81, 9-(6-fluoropyridin-3-yl)-2-(4-methyl-1H-imidazol-1-yl)-7,8-dihydro-[1,4]diazepino[7,1-a]isoquinolin-5(4H)-one], the negative logarithm of the IC50 (pIC50) on human mGluR1 was under 5.00; on human mGluR5a receptors it was 7.44.
In the case of `Cc1cn(C2=NCC(=O)N3CCc4c(cccc4-c4cncs4)C3=C2)cn1` [Example 82, 2-(4-methyl-1H-imidazol-1-yl)-9-(thiazol-5-yl)-7,8-dihydro-[1,4]diazepino[7,1-a]isoquinolin-5(4H)-one], the negative logarithm of the IC50 (pIC50) was under 5.00 at human mGluR1 and 7.14 on human mGluR5a receptors.
On the same counts, the results for `O=C1CN=C(n2cnc(Cl)c2)C=C2c3cccc(-c4cncc(F)c4)c3CCN12` [Example 83, 2-(4-chloro-1H-imidazol-1-yl)-9-(5-fluoropyridin-3-yl)-7,8-dihydro-[1,4]diazepino[7,1-a]isoquinolin-5(4H)-one] are under 5.00 and 6.69.
On to `COCCc1cn(C2=NCC(=O)N3CCc4c(cccc4-c4ccc(F)nc4)C3=C2)cn1` [Example 84, 9-(6-fluoropyridin-3-yl)-2-(4-(2-methoxyethyl)-1H-imidazol-1-yl)-7,8-dihydro-[1,4]diazepino[7,1-a]isoquinolin-5(4H)-one], for which the pIC50 was under 5.00 at human mGluR1 and 7.55 at human mGluR5a receptors.
On the same counts, the results for `C=Cc1cccc2c1CCN1C(=O)CN=C(n3cnc(COC)c3)C=C21` [Example 85, 2-(4-(methoxymethyl)-1H-imidazol-1-yl)-9-vinyl-7,8-dihydro-[1,4]diazepino[7,1-a]isoquinolin-5(4H)-one] are 5.80 and 7.41.
On the same counts, the results for `CCc1cn(C2=NCC(=O)N3CCc4c(cccc4-c4ccc(F)cc4)C3=C2)cn1` [Example 86, 2-(4-ethyl-1H-imidazol-1-yl)-9-(4-fluorophenyl)-7,8-dihydro-[1,4]diazepino[7,1-a]isoquinolin-5(4H)-one] are 5.23 and 7.92.
In the case of `Cc1coc(-c2cccc3c2CCN2C(=O)CN=C(n4cnc(C5CC5)c4)C=C32)n1` [Example 87, 2-(4-cyclopropyl-1H-imidazol-1-yl)-9-(4-methyloxazol-2-yl)-7,8-dihydro-[1,4]diazepino[7,1-a]isoquinolin-5(4H)-one], the inhibition at 10 µM on human mGluR1 worked out at 56%. For the same compound, at human mGluR5a receptors, the negative logarithm of the IC50 (pIC50) is 6.83.
For the compound `Cc1cnc(-c2cccc3c2CCN2C(=O)CN=C(n4cnc(C5CC5)c4)C=C32)o1` [Example 88, 2-(4-cyclopropyl-1H-imidazol-1-yl)-9-(5-methyloxazol-2-yl)-7,8-dihydro-[1,4]diazepino[7,1-a]isoquinolin-5(4H)-one], at human mGluR1, the inhibition at 10 µM was found to be 47%. Further, the pIC50 on human mGluR5a receptors was 6.88.
Regarding `CCCc1cccc2c1CCN1C(=O)CN=C(n3cnc(-c4ncco4)c3)C=C21` [Example 88a, 2-(4-(oxazol-2-yl)-1H-imidazol-1-yl)-9-propyl-7,8-dihydro-[1,4]diazepino[7,1-a]isoquinolin-5(4H)-one], the inhibition at 10 µM on human mGluR1 worked out at 24%. Further, the pIC50 at human mGluR5a receptors was 8.30.
With `O=C1CN=C(n2cnc(C3CC3)n2)C=C2c3cccc(-c4nccnc4F)c3CCN12` [Example 88b, 2-(3-cyclopropyl-1H-1,2,4-triazol-1-yl)-9-(3-fluoropyrazin-2-yl)-7,8-dihydro-[1,4]diazepino[7,1-a]isoquinolin-5(4H)-one], the pIC50 at human mGluR1 is under 5.70; on human mGluR5a receptors, 7.70.
The like results for `O=C1CN=C(n2cnc(C3CC3)n2)C=C2c3cccc(-c4ncccc4F)c3CCN12` [Example 88c, 2-(3-cyclopropyl-1H-1,2,4-triazol-1-yl)-9-(3-fluoropyridin-2-yl)-7,8-dihydro-[1,4]diazepino[7,1-a]isoquinolin-5(4H)-one] were, in that order, under 5.00 and 6.57.
Turning to `O=C1CN=C(n2cnc(C3CC3)c2)C=C2c3cccc(-c4cncs4)c3CCN12` [Example 88d, 2-(4-cyclopropyl-1H-imidazol-1-yl)-9-(thiazol-5-yl)-7,8-dihydro-[1,4]diazepino[7,1-a]isoquinolin-5(4H)-one], the pIC50 was under 5.70 on human mGluR1 and 7.51 on human mGluR5a receptors.
On the same counts, the results for `Cc1ncc(-c2cccc3c2CCN2C(=O)CN=C(n4cnc(C5CC5)c4)C=C32)s1` [Example 88e, 2-(4-cyclopropyl-1H-imidazol-1-yl)-9-(2-methylthiazol-5-yl)-7,8-dihydro-[1,4]diazepino[7,1-a]isoquinolin-5(4H)-one] are 5.41 and 7.47.
On the same counts, the results for `O=C1CN=C(n2cnc(C3CC3)c2)C=C2c3cccc(-c4cnccn4)c3CCN12` [Example 88f, 2-(4-Cyclopropyl-1H-Imidazol-1-yl)-9-(pyrazin-2-yl)-7,8-dihydro-[1,4]diazepino[7,1-a]isoquinolin-5(4H)-one] are 5.71 and 7.00.
